Results on 36 compounds are retold here after the OPERA property sets (Mansouri et al. 2018).

Converted amounts (≈) assume the structure as drawn. Where a SMILES comes first, the peptide text is derived from it.

Details in one data set: not given
Broadly, the logP is a log measure of how a compound divides between an organic and an aqueous phase. A low value points to a more hydrophilic compound. In turn, `O=C(NCc1ccc(F)cc1)C(=O)c1c[nH]c2ccccc12` came in with a logP of 2.88.

`CCNC(N)=S` displayed a logP of -0.21. On the same count and under the same terms, as for `N#CCCC#N`, the figure is -0.99. In turn, `CCCNc1nc(C)nc(C(Cl)(Cl)Cl)n1` had a logP of 3.29. Take `OCc1c(Cl)cccc1Cl`: the logP turned out to be 2.02. For the compound `C=CCOc1ccccc1OCC(CNC(C)C)OC(=O)C(C)C` (stereo not drawn), the logP is 3.77. The same measure, in the same setting: under `CC(C)C(=O)Nc1ccc([N+](=O)[O-])c(C(F)(F)F)c1` stands 3.35; under `NC(=O)c1ccc(N)nc1`, 0.7.

Compound `Cc1cc(Cl)ccc1OCC(=O)OCCCCCC(C)C` had a logP of 6.7.

`Clc1ccc(C2OC2c2ccccc2)cc1` (stereo not drawn) yielded a logP of 4.54. `Clc1ccc(Cl)nn1` had a logP of 0.7. As for `COc1ccc(C=NNC(=N)N)cc1`, the logP came to 0.29. For the compound `COc1ccc(C(OC(C)=O)C(Cl)(Cl)Cl)cc1` (stereo not drawn), the logP is 3.72. `c1cnc2c(c1)cc1ccc3cccc4ccc2c1c34` registered a lipophilicity (logP) of 5.53. Consider `C=COCCn1cnc2[nH]c(=O)n(C)c(=N)c21`, for which the logP is -0.78. Still for that read-out and setting: under `CC1=CCC(=C(C)C)CC1` stands 4.47. By solubility is commonly meant how much of the substance goes into solution per volume. Read a high solubility as much dissolved substance. With `Oc1c(Cl)ccc(Cl)c1Cl`, the solubility came to 2.28 mM (≈ 450 µg/mL). The compound `COc1cccc(OCCN(C)C)c1` had a logP of 1.69.

As for `COc1ccc(Cn2cncn2)cc1`, the logP amounted to 1.1.

The compound `CC(CO)CO` showed a logP of 0.24.

`CN1CC=C(c2ccncc2)CC1` displayed a logP of 1.25. `CC(=O)Oc1ccc(NC(=O)C(Cl)Cl)cc1` yielded a logP of 1.9. As for `CC(=O)N[C@@H](C)C(=O)N[C@H](C(N)=O)C(C)C` (Ac-Ala-Val-NH2), the logP is -1.13. Compound `CCOC(C(=O)OCc1ccccc1)C(C)C` (stereo not drawn) gave a logP of 3.29.

Compound `CCCCC(O)CCC` (stereo not drawn) showed a logP of 2.68. `COC(=O)C(c1ccccc1)C(C)C` (stereo not drawn): the logP came out at 3.33.

In turn, `CC1=CCC(C(C)C)=CC1` showed a logP of 4.5. The compound `CCCCCCCCCCCCCCO` showed a log partition coefficient (logP) of 6.03. Regarding `C=CCOc1ccccc1OCC(CNC(C)C)OC(=O)CC` (stereo not drawn), the logP came to 3.76.

Staying with this data set, now noted: 23 °C.
For the compound `CC1=CCC(=C(C)C)CC1`, the solubility amounted to 0.0697 mM (≈ 9.5 µg/mL).

Still in this data set, the particulars now being: 25 °C.
The compound `CCCC(C)Cl` (stereo not drawn) returned a solubility of 3.2 mM (≈ 341 µg/mL).

`CC(O)c1ccccc1` (stereo not drawn) showed a solubility of 43.8 mM (≈ 5350 µg/mL). This solubility is about 14-fold higher than that of the compound before.

Compound `O=C(O)c1cccc(C(=O)O)n1` yielded a solubility of 29.9 mM (≈ 5000 µg/mL). The same measure, in the same setting: as for `O=C([O-])CF.[Na+]`, the figure is 11100 mM.

`CCOC(C)=O` returned a solubility of 908 mM (≈ 80000 µg/mL).

The same data set, now with this note: 25.0 °C.
Regarding `CC(C)(C)N`, the log10 OH rate constant (cm³/molecule/s) was -10.9. In the case of `CC(Br)Br`, the log10 OH rate constant (cm³/molecule/s) is -12.6. Compound `CC1=CCC(=C(C)C)CC1` returned a log10 OH rate constant (cm³/molecule/s) of -9.65.
